IC50 data for 31 molecules are collected here from patent US10669242B2 (priority 2016, dated 2020).

Molecules are shown by their SMILES. Where a name gives a salt, the structure may show the parent alone.

The target in the first test is T1, recombinant glucosyltransferase domain of C. difficile Toxin B/TcdB (Clostridioides difficile, UniProt P18177).
T1 construct: 6-His (C); purchased R&D Systems 6246-GT
T1 sequence (P18177 1-543): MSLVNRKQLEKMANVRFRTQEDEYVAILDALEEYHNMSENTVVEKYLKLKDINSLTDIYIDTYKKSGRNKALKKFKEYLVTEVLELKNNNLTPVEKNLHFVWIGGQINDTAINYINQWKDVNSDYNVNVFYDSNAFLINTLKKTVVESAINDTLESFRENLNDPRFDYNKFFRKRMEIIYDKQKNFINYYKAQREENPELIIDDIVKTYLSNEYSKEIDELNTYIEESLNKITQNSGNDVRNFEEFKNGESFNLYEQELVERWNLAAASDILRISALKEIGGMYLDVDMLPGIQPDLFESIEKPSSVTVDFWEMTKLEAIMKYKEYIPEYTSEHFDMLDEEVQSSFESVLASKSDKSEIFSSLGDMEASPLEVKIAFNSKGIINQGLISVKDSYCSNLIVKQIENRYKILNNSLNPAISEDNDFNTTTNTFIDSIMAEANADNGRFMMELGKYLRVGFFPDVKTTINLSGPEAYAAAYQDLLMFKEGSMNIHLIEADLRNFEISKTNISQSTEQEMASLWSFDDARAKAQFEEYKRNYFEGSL
Description: biochemical.
Settings: not given
With `Cc1cccnc1C(=O)Nc1ccc(CN2C(=O)c3ccc(Cl)cc3NC(=O)[C@H]2Cc2ccccn2)cc1` [Example 26e], the IC50 was in the range of 1 to 10 µM. `O=C(O)c1ccc(CN2C(=O)c3ccc(Cl)cc3NC(=O)[C@H]2Cc2ccccn2)cc1-c1cn[nH]c1` [Example 8r, (R)-4-((8-chloro-2,5-dioxo-3-(pyridin-2-ylmethyl)-2,3-dihydro-1H-benzo[e][1,4]diazepin-4(5H)-yl)methyl)-2-(1H-pyrazol-4-yl)benzoic acid]: the 50% inhibitory concentration (IC50) fell in the range of 0.1 to 0.999 µM. As for `Cc1ccc(-c2cc(CN3C(=O)c4ccc(Cl)cc4NC(=O)[C@H]3Cc3ccccn3)ccc2C(=O)O)cc1` [Example 8g, (R)-5-((8-chloro-2,5-dioxo-3-(pyridin-2-ylmethyl)-2,3-dihydro-1H-benzo[e][1,4]diazepin-4(5H)-yl)methyl)-4′-methyl-[1,1′-biphenyl]-2-carboxylic acid], the IC50 was in the range of 0.1 to 0.999 µM. Take `O=C(Nc1ccc(Cl)cn1)c1ccc(CN2C(=O)c3ccc(Cl)cc3NC(=O)[C@H]2Cc2cccnc2)cc1` [Example 5d, (R)-4-((8-chloro-2,5-dioxo-3-(pyridin-3-ylmethyl)-2,3-dihydro-1H-benzo[e][1,4]diazepin-4(5H)-yl)methyl)-N-(5-chloropyridin-2-yl)benzamide]: the IC50 was < 0.1 µM. Consider `Cc1ccnc(C(=O)Nc2ccc(CN3C(=O)c4ccc(Cl)cc4NC(=O)[C@H]3Cc3ccccn3)cc2)c1` [Example 26c], for which the IC50 was < 0.1 µM. Take `Cc1cnc2c(c1)CCN2C(=O)c1ccc(CN2C(=O)c3ccc(Cl)cc3NC(=O)[C@H]2Cc2ccccn2)cc1F` [Example 6f, (R)-8-chloro-4-(3-fluoro-4-(5-methyl-2,3-dihydro-1H-pyrrolo[2,3-b]pyridine-1-carbonyl)benzyl)-3-(pyridin-2-ylmethyl)-3,4-dihydro-1H-benzo[e][1,4]diazepine-2,5-dione]: the IC50 is < 0.1 µM.

As for `Cn1ccc(NC(=O)c2ccc(CN3C(=O)c4ccc(Cl)cc4NC(=O)[C@H]3Cc3cccnc3)cc2)n1` [Example 4d, (R)-4-((8-chloro-2,5-dioxo-3-(pyridin-3-ylmethyl)-2,3-dihydro-1H-benzo[e][1,4]diazepin-4(5H)-yl)methyl)-N-(1-methyl-1H-pyrazol-3-yl)benzamide], the IC50 is 0.1 to 0.999 µM. For the molecule `Cc1ccc(NC(=O)[C@H]2CC[C@H](CN3C(=O)c4ccc(Cl)cc4NC(=O)[C@H]3Cc3ccccn3)CC2)nc1` [Example 4bx, (1R,4r)-4-(((R)-8-chloro-2,5-dioxo-3-(pyridin-2-ylmethyl)-2,3-dihydro-1H-benzo[e][1,4]diazepin-4(5H)-yl)methyl)-N-(5-methylpyridin-2-yl)cyclohexanecarboxamide], the IC50 is < 0.1 µM. Same read-out and setting: with `O=C(Nc1cnccn1)c1ccc(CN2C(=O)c3ccc(Cl)cc3NC(=O)[C@H]2Cc2cccnc2)cc1` [Example 5c, (R)-4-((8-chloro-2,5-dioxo-3-(pyridin-3-ylmethyl)-2,3-dihydro-1H-benzo[e][1,4]diazepin-4(5H)-yl)methyl)-N-(pyrazin-2-yl)benzamide] the figure was < 0.1 µM; with `Cc1ccc(NC(=O)c2ccc(CN3C(=O)c4ccc(Cl)cc4NC(=O)[C@H]3CCN3CCCCC3)cc2)nc1` [Example 10b, (R)-4-((8-chloro-2,5-dioxo-3-(2-(piperidin-1-yl)ethyl)-2,3-dihydro-1H-benzo[e][1,4]diazepin-4(5H)-yl)methyl)-N-(5-methylpyridin-2-yl)benzamide], 10 to 35 µM; with `O=C1Nc2cc(Cl)ccc2C(=O)N(Cc2ccc(C(=O)N3CCCc4cccnc43)cc2)[C@@H]1Cc1ccccn1` [Example 4ag, (R)-8-chloro-3-(pyridin-2-ylmethyl)-4-(4-(1,2,3,4-tetrahydro-1,8-naphthyridine-1-carbonyl)benzyl)-3,4-dihydro-1H-benzo[e][1,4]diazepine-2,5-dione], 1 to 10 µM. On to `Cc1cnc(NC(=O)c2ccc(CN3C(=O)c4ccc(Cl)cc4NC(=O)[C@H]3Cc3ccccn3)cc2Cl)s1` [Example 4cc, (R)-2-chloro-4-((8-chloro-2,5-dioxo-3-(pyridin-2-ylmethyl)-2,3-dihydro-1H-benzo[e][1,4]diazepin-4(5H)-yl)methyl)-N-(5-methylthiazol-2-yl)benzamide], for which the IC50 is < 0.1 µM. With `O=C(Nc1ccc(CN2C(=O)c3ccc(Cl)cc3NC(=O)[C@H]2Cc2ccccn2)cc1)c1cnccn1` [Example 27d], the IC50 was in the range of 0.1 to 0.999 µM. In the case of `Cc1cnc(NC(=O)c2ccc(CN3C(=O)c4ccc(Cl)cc4NC(=O)[C@H]3C)cc2)cn1` [Example 4bi, (R)-4-((8-chloro-3-methyl-2,5-dioxo-2,3-dihydro-1H-benzo[e][1,4]diazepin-4(5H)-yl)methyl)-N-(5-methylpyrazin-2-yl)benzamide], the IC50 lay within 0.1 to 0.999 µM.

With `O=C(Nc1ncccn1)c1ccc(CN2C(=O)c3ccc(Cl)cc3NC(=O)[C@H]2Cc2cccnc2)cc1` [Example 5b, (R)-4-((8-chloro-2,5-dioxo-3-(pyridin-3-ylmethyl)-2,3-dihydro-1H-benzo[e][1,4]diazepin-4(5H)-yl)methyl)-N-(pyrimidin-2-yl)benzamide], the IC50 was < 0.1 µM. Turning to `Cn1nccc1-c1cc(CN2C(=O)c3ccc(Cl)cc3NC(=O)[C@H]2Cc2ccccn2)ccc1C(=O)O` [Example 8s, (R)-4-((8-chloro-2,5-dioxo-3-(pyridin-2-ylmethyl)-2,3-dihydro-1H-benzo[e][1,4]diazepin-4(5H)-yl)methyl)-2-(1-methyl-1H-pyrazol-5-yl)benzoic acid], the IC50 lay within 1 to 10 µM.

`Cc1ccc(NC(=O)c2ccc(S(=O)(=O)N3Cc4ccc(Cl)cc4NC(=O)[C@H]3Cc3ccccn3)cc2)nc1` [Example 19a, (R)-4-((8-Chloro-2-oxo-3-(pyridin-2-ylmethyl)-2,3-dihydro-1H-benzo[e][1,4]diazepin-4(5H)-yl)sulfonyl)-N-(5-methylpyridin-2-yl)benzamide]: the IC50 was 0.1 to 0.999 µM. Take `O=C(Nc1ccccn1)c1ccc(CN2C(=O)c3cc(Cl)ccc3NC(=O)[C@H]2Cc2cccnc2)cc1` [Example 35h]: the IC50 was in the range of 0.1 to 0.999 µM.

On to `O=C(Nc1cccnn1)c1ccc(CN2C(=O)c3ccc(Cl)cc3NC(=O)[C@H]2Cc2ccccn2)cc1` [Example 4bl, (R)-4-((8-chloro-2,5-dioxo-3-(pyridin-2-ylmethyl)-2,3-dihydro-1H-benzo[e][1,4]diazepin-4(5H)-yl)methyl)-N-(pyridazin-3-yl)benzamide], for which the half-maximal inhibitory concentration (IC50) fell in the range of 0.1 to 0.999 µM. Same read-out and setting: the value for `O=C(Nc1ccccn1)c1ccc(CN2C(=O)c3ccc(Cl)cc3NC(=O)[C@H]2Cc2ccccn2)cc1F` [Example 6b, (R)-4-((8-chloro-2,5-dioxo-3-(pyridin-2-ylmethyl)-2,3-dihydro-1H-benzo[e][1,4]diazepin-4(5H)-yl)methyl)-2-fluoro-N-(pyridin-2-yl)benzamide] was < 0.1 µM; that for `O=C1Nc2cc(Cl)ccc2C(=O)N(CC2CCN(C(=O)Nc3ccccn3)CC2)[C@@H]1Cc1ccccn1` [Example 42a, (R)-4-((8-Chloro-2,5-dioxo-3-(pyridin-2-ylmethyl)-2,3-dihydro-1H-benzo[e][1,4]diazepin-4(5H)-yl)methyl)-N-(pyridin-2-yl)piperidine-1-carboxamide] was 1 to 10 µM.

Regarding `O=C(O)c1ccc(CN2C(=O)c3ccc(Cl)cc3NC(=O)[C@H]2Cc2ccccc2F)cc1` [Example 3j], the IC50 was 10 to 35 µM. `Cc1cc(NC(=O)c2ccc(CN3C(=O)c4ccc(Cl)cc4NC(=O)[C@H]3Cc3cccnc3)cc2)no1` [Example 4e, (R)-4-((8-chloro-2,5-dioxo-3-(pyridin-3-ylmethyl)-2,3-dihydro-1H-benzo[e][1,4]diazepin-4(5H)-yl)methyl)-N-(5-methylisoxazol-3-yl)benzamide]: the IC50 is < 0.1 µM. The same measure, in the same setting: the value for `O=C(O)c1ccc(CN2C(=O)c3ccc(Cl)cc3NC(=O)[C@H]2Cc2ccccn2)cc1-c1cccc(F)c1` [Example 8k, (R)-5-((8-chloro-2,5-dioxo-3-(pyridin-2-ylmethyl)-2,3-dihydro-1H-benzo[e][1,4]diazepin-4(5H)-yl)methyl)-3′-fluoro-[1,1′-biphenyl]-2-carboxylic acid] was 0.1 to 0.999 µM. `O=C(Nc1ccc(N2CCNCC2)cn1)c1ccc(CN2C(=O)c3ccc(Cl)cc3NC(=O)[C@H]2Cc2ccccn2)cc1` [Example 48a, (R)-4-((8-Chloro-2,5-dioxo-3-(pyridin-2-ylmethyl)-2,3-dihydro-1H-benzo[e][1,4]diazepin-4(5H)-yl)methyl)-N-(5-(piperazin-1-yl)pyridin-2-yl)benzamide hydrochloride]: the IC50 is < 0.1 µM. Same read-out and setting: with `Cc1ccc(NC(=O)c2ccc(CN3C(=O)c4ccc(Cl)cc4NC(=O)[C@H]3CCN3CCC(O)CC3)cc2)nc1` [Example 10c, (R)-4-((8-chloro-3-(2-(4-hydroxypiperidin-1-yl)ethyl)-2,5-dioxo-2,3-dihydro-1H-benzo[e][1,4]diazepin-4(5H)-yl)methyl)-N-(5-methylpyridin-2-yl)benzamide] the figure was 1 to 10 µM; with `Cc1cc(CN2C(=O)c3ccc(Cl)cc3NC(=O)[C@H]2Cc2ccccn2)cc(C)c1NC(=O)c1ccccn1` [Example 26k], 0.1 to 0.999 µM. In the case of `Cc1cccnc1NC(=O)c1ccc(CN2C(=O)c3ccc(Cl)cc3NC(=O)[C@H]2Cc2cccnc2)cc1` [Example 4k, (R)-4-((8-chloro-2,5-dioxo-3-(pyridin-3-ylmethyl)-2,3-dihydro-1H-benzo[e][1,4]diazepin-4(5H)-yl)methyl)-N-(3-methylpyridin-2-yl)benzamide], the IC50 was in the range of 0.1 to 0.999 µM.

Consider `O=C(Nc1ccccn1)c1ccc(CN2C(=O)c3ccc(Cl)cc3NC(=O)[C@H]2Cc2ccccc2Cl)cc1` [Example 4w, (R)-4-((8-chloro-3-(2-chlorobenzyl)-2,5-dioxo-2,3-dihydro-1H-benzo[e][1,4]diazepin-4(5H)-yl)methyl)-N-(pyridin-2-yl)benzamide], for which the IC50 was < 0.1 µM. In the case of `Cc1cnc(NC(=O)c2ccc(S(=O)(=O)N3Cc4ccc(Cl)cc4NC(=O)[C@@H]3Cc3ccccn3)cc2)nc1` [Example 19e, (S)-4-((8-chloro-2-oxo-3-(pyridin-2-ylmethyl)-2,3-dihydro-1H-benzo[e][1,4]diazepin-4(5H)-yl)sulfonyl)-N-(5-methylpyrimidin-2-yl)benzamide], the IC50 lay within 0.1 to 0.999 µM.

The same test, now with this note: read-out: TcdB UDP-Glucose hydrolysis activity (IC50, coded); UDP-Glucose hydrolysis assay, fluorescence polarization.
In the case of `O=C1Nc2cc(Cl)ccc2C(=O)N(C[C@H]2CC[C@H](C(=O)c3cccn4ccnc34)CC2)[C@@H]1Cc1ccccn1` [Example 34b], the IC50 was < 0.1 µM.

A word on the IC50: it is the concentration at which inhibition is half-maximal.
